Source: US20140051679A1, “KINASE INHIBITORS AND METHOD OF TREATING CANCER WITH SAME” (UNIVERISTY HEALTH NETWORKS, priority 2011, published 2014)

Experiments:
[1] = system: Colon tumor initiating cells (TICs), 12 colon; assay: Colon tumor-initiating cell growth inhibition (Alamar Blue); type: cell-based; conditions: 216 h, 9 days, read-out: GI50 range 12 colon
[2] = system: OVCAR-3 ovarian cancer cells; assay: Cell growth inhibition, Sulforhodamine B assay, OVCAR-3; type: cell-based; conditions: Homo sapiens, 120 h, 5 days culture, SRB assay, read-out: Cell Line GI50 Range OVCAR-3
[3] = system: HCT116 colon cancer cells; assay: Cell growth inhibition, Sulforhodamine B assay, HCT116; type: cell-based; conditions: Homo sapiens, HCT-116, 120 h, 5 days culture, SRB assay, read-out: Cell Line GI50 Range HCT116
[4] = system: Ovarian TICs, 2393A ovarian; assay: Ovarian tumor-initiating cell growth inhibition (Alamar Blue); type: cell-based; conditions: 144 h, 6 days, read-out: GI50 range 2393A ovarian
[5] = target: T1, human TTK (Homo sapiens, UniProt P33981); assay: TTK inhibition assay (indirect ELISA); type: biochemical; conditions: GST-TTK 0.68 nM, 16 μM ATP; read-out: IC50 Ranges TTK
T1 construct: amino terminal GST fusion of full length human TTK; purchased Invitrogen
T1 sequence (P33981 1-857): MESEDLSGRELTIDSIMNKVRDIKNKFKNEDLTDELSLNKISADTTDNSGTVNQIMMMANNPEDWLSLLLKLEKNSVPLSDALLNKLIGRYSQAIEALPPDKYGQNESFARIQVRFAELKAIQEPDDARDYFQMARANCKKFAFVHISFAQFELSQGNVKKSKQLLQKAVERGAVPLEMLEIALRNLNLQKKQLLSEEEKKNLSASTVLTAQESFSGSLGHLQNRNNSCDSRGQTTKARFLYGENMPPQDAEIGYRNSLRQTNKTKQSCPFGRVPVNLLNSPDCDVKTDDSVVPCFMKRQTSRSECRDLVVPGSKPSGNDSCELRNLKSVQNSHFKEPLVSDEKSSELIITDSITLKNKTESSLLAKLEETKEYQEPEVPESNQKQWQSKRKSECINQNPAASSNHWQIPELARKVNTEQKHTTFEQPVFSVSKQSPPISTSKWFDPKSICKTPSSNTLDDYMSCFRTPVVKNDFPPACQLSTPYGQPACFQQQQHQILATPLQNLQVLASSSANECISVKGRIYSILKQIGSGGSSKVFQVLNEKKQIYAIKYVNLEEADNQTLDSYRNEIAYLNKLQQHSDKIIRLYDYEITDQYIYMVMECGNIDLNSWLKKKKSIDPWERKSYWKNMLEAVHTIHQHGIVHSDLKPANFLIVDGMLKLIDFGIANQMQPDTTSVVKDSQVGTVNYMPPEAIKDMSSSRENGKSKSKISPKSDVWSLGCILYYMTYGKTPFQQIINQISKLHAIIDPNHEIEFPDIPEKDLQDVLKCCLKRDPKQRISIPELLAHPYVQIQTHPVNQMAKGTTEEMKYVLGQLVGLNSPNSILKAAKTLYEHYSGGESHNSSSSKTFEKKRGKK

[6] = target: T2, Aurora B (Homo sapiens, UniProt Q96GD4); assay: Aurora B inhibition assay (Z-Lyte); type: biochemical; conditions: 28 nM Aurora B, 128 μM ATP; read-out: IC50 Ranges Aurora B
T2 construct: purchased Invitrogen PV3970
T2 sequence (Q96GD4 whole entry): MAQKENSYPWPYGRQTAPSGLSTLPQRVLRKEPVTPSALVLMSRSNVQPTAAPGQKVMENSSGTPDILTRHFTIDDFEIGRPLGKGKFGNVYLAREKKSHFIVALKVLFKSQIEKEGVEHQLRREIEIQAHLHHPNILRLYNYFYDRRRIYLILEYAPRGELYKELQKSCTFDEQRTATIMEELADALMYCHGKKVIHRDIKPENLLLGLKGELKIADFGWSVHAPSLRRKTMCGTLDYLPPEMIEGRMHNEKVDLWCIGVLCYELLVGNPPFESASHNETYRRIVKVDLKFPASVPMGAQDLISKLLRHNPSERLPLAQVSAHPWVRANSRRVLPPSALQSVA
Method: Aurora B inhibition was determined using the Z-Lyte assay kit from Invitrogen. The assay was performed using the recommended manufacturer's instructions with 128 μM ATP and 28 nM Aurora B (Invitrogen cat #PV3970). The % inhibition values were determined according to the manufacturer's directions and IC50 values were obtained using a non-linear 4 point logistic curve fit (XLfit4, IDBS)

[7] = target: T3, human PLK4 (Homo sapiens, UniProt O00444); assay: PLK4 inhibition assay (indirect ELISA); type: biochemical; conditions: GST-PLK4 4 nM, 15 μM ATP; read-out: IC50 Ranges PLK4
T3 construct: amino terminal GST fusion of residues 1-391 of human PLK4; made in house; host or cells: E. coli
T3 sequence (O00444 1-391): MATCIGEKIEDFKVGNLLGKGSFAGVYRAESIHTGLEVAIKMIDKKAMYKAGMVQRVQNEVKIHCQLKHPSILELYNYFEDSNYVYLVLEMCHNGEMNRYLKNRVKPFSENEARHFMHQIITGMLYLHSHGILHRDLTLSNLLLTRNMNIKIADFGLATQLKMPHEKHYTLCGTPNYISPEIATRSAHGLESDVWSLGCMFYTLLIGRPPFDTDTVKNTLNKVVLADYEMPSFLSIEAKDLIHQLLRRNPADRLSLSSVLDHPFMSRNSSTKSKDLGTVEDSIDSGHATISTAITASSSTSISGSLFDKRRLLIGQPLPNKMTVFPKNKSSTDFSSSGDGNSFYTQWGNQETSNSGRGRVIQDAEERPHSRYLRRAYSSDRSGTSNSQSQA
Outline: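 Dephosphorylated GST-tagged human PLK4 (residues 1-391, E. coli), 4 nM, preincubated 15 min with compound, then reacted 30 min with 15 μM ATP on MBP-coated plates (50 mM HEPES pH 7.5, 10 mM MgCl2, 0.01% Brij 35). Phospho-MBP detected by antibody ELISA at 450 nm. Tested at 10 μM or 10-point titrations; IC50 from 4-parameter logistic fit.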

[8] = system: HT29 colon cancer cells; assay: Cell growth inhibition, Sulforhodamine B assay, HT29; type: cell-based; conditions: Homo sapiens, HT-29, 120 h, 5 days culture, SRB assay, read-out: Cell Line GI50 Range HT29
[9] = system: MDA-MB-468 breast cancer cells; assay: Cell growth inhibition, Sulforhodamine B assay, MDA-MB-468; type: cell-based; conditions: Homo sapiens, 120 h, 5 days culture, SRB assay, read-out: Cell Line GI50 Range MDA-MB-468
[10] = system: MDA-MB-231 breast cancer cells; assay: Cell growth inhibition, Sulforhodamine B assay, MDA-MB-231; type: cell-based; conditions: Homo sapiens, 120 h, 5 days culture, SRB assay, read-out: Cell Line GI50 Range MDA-MB-231
[11] = system: PA-1 ovarian cancer cells; assay: Cell growth inhibition, Sulforhodamine B assay, PA-1; type: cell-based; conditions: 120 h, 5 days culture, SRB assay, read-out: Cell Line GI50 Range PA-1

| SMILES | GI50 [1] [µM] | GI50 [2] [µM] | GI50 [3] [µM] | GI50 [4] [µM] | IC50 [5] [µM] | IC50 [6] [µM] | IC50 [7] [µM] | GI50 [8] [µM] | GI50 [9] [µM] | GI50 [10] [µM] | GI50 [11] [µM] |
| --- | --- | --- | --- | --- | --- | --- | --- | --- | --- | --- | --- |
| CN1CCC(Oc2ccc(-c3n[nH]c4ccc(C(=O)N[C@@H](CCO)c5ccccc5)cc34)cc2)CC1 [Example A125, (S)—N-(3-hydroxy-1-phenylpropyl)-3-(4-((1-methylpiperidin-4-yl)oxy)phenyl)-1H-indazole-5-carboxamide] | – | ≤ 5 | ≤ 5 | – | ≤ 5 | ≤ 5 | ≤ 5 | ≤ 5 | ≤ 5 | ≤ 5 | ≤ 5 |
| COCCN1CCC(Oc2ccc(-c3n[nH]c4ccc(C(=O)NC(c5ccsc5)C5CCCC5)cc34)cc2)CC1 (centres unmarked) [Example A155, N-(cyclopentyl(thiophen-3-yl)methyl)-3-(4-((1-(2-methoxyethyl)piperidin-4-yl)oxy)phenyl)-1H-indazole-5-carboxamide] | – | ≤ 5 | ≤ 5 | – | ≤ 5 | ≤ 5 | ≤ 5 | ≤ 5 | ≤ 5 | ≤ 5 | ≤ 5 |
| CN1CCC(Oc2cccc(-c3n[nH]c4ccc(NC(=O)C(c5ccsc5)N5CCCC5)cc34)c2)CC1 (centres unmarked) [Example A99, N-(3-(3-((1-methylpiperidin-4-yl)oxy)phenyl)-1H-indazol-5-yl)-2-(pyrrolidin-1-yl)-2-(thiophen-3-yl)acetamide] | – | ≤ 5 | ≤ 5 | – | ≤ 5 | ≤ 5 | ≤ 5 | ≤ 5 | ≤ 5 | ≤ 5 | ≤ 5 |
| COCCN1CCC(Oc2ccc(-c3n[nH]c4ccc(C(=O)NC(c5ccccc5)C5CCCC5)cc34)cc2)CC1 (centres unmarked) [Example A161, N-(cyclopentyl(phenyl)methyl)-3-(4-((1-(2-methoxyethyl)piperidin-4-yl)oxy)phenyl)-1H-indazole-5-carboxamide] | – | ≤ 5 | ≤ 5 | – | ≤ 5 | ≤ 5 | ≤ 5 | ≤ 5 | ≤ 5 | ≤ 5 | ≤ 5 |

More lines, now with the values ahead:

| GI50 [1] [µM] | GI50 [2] [µM] | GI50 [3] [µM] | GI50 [4] [µM] | IC50 [5] [µM] | IC50 [6] [µM] | IC50 [7] [µM] | GI50 [8] [µM] | GI50 [9] [µM] | GI50 [10] [µM] | GI50 [11] [µM] | SMILES |
| --- | --- | --- | --- | --- | --- | --- | --- | --- | --- | --- | --- |
| ≤ 5 | ≤ 5 | ≤ 5 | ≤ 5 | ≤ 5 | ≤ 5 | ≤ 5 | ≤ 5 | ≤ 5 | – | – | C[C@H]1CCCN1[C@H](C(=O)Nc1ccc2[nH]nc(-c3ccc(OC4CCN(C)CC4)cc3)c2c1)c1ccsc1 [Example A41, (S)—N-(3-(4-((1-methylpiperidin-4-yl)oxy)phenyl)-1H-indazol-5-yl)-2-((S)-2-methylpyrrolidin-1-yl)-2-(thiophen-3-yl)acetamide] |
| ≤ 5 | ≤ 5 | ≤ 5 | ≤ 5 | ≤ 5 | ≤ 5 | ≤ 5 | ≤ 5 | ≤ 5 | ≤ 5 | – | CN1CCC(Nc2ccc(-c3n[nH]c4ccc(NC(=O)C(c5ccsc5)N5CCCC5)cc34)cc2)CC1 (centres unmarked) [Example A25] |
| ≤ 5 | – | ≤ 5 | ≤ 5 | ≤ 5 | ≤ 5 | ≤ 5 | – | ≤ 5 | – | – | O=C(NC(c1ccccc1)C1CC1)c1ccc2[nH]nc(-c3ccc(N4CCOCC4)cc3)c2c1 (centres unmarked) [Example A12, N-(cyclopropyl(phenyl)methyl)-3-(4-morpholinophenyl)-1H-indazole-5-carboxamide] |
| – | ≤ 5 | ≤ 5 | – | ≤ 5 | ≤ 5 | ≤ 5 | ≤ 5 | ≤ 5 | ≤ 5 | ≤ 5 | CC(C)(O)C1CCN(c2ccc(-c3n[nH]c4ccc(C(=O)NC(c5ccccc5)C5CC5)cc34)cc2)CC1 (centres unmarked) [Example A112, N-(cyclopropyl(phenyl)methyl)-3-(4-(4-(2-hydroxypropan-2-yl)piperidin-1-yl)phenyl)-1H-indazole-5-carboxamide] |
